Data on one compound can be found in US20250032437A1, “D-Serine Inhibits Neuroinflammation Due To A Brain Injury” (Florida State University Research Foundation, Inc., priority 2019, published 2025).

The test system of the assay is entorhinal cortex (neurons, astrocytes, microglia) of animals made epileptic with a chemo-convulsant. Kind of assay: D-serine injected into the entorhinal area in an animal model of Temporal Lobe Epilepsy; neurons, astrocytes and microglia identified with fluorescent-tagged antibodies. In kind it is in vivo. As to the method: These cells cause inflammation in brain tissue by releasing cytokines. These neuroinflammatory cell types were identified using fluorescent-tagged antibodies first in control animals and then in animals that were made epileptic using a well-established animal model of Temporal Lobe Epilepsy. […] In a separate sample of animals, D-serine was injected into the entorhinal area prior to making them epileptic with a chemo-convulsant and immediately after administration of the chemo-convulsant.

Where [1] appears, read: D-serine injected into the entorhinal area, FIG. 2 vs FIG. 3.

For `N[C@H](CO)C(=O)O` [D-serine], the “development of epilepsy after chemo-convulsant” value (D-serine injected into the entorhinal area prior to and immediately after administration of the chemo-convulsant) is on record as “did not become epileptic”. Besides, under setting [1], the “astrocytes in the entorhinal region (GFAP)” value is given as “fewer astrocytes” and the “neurons in the entorhinal cortex (NeuN) compared with the epileptic animals” value is reported as “significant rescue of neurons”. Besides, for the setting “D-serine injected into the entorhinal area, FIG. 7 vs FIG. 8”, the “infiltration of microglia to the entorhinal region (OX42)” value is “significantly reduced”.
